Measured values reported in patent US20090264433A1, “Compounds, Compositions and Methods Comprising Triazine Derivatives” (Institute for OneWorld Health, priority 2008, published 2009).
Counter-ions that a name gives are not always drawn.

Molecular target: T1, CFTR channel in human colonic T84 cells (Homo sapiens, UniProt P13569)
T1 construct: results in the phosphorylation and opening of CFTR anion channels; host or cells: human colonic T84 cells
Test: T84 assay (FLIPR membrane potential dye, forskolin/IBMX-stimulated CFTR)
Assay type: cell-based
Details: average of at least 2 runs unless annotated n = 1
Procedure: (§1) For example, Human colonic T84 cells can be acquired from the European Collection of Cell Cultures (ECACC) and grown in standard culture conditions as described by the supplier. On the day before assay 25,000 T84 cells per well are plated into standard black walled, clear bottom 384-well assay plates in standard growth medium consisting of DMEM:F12 with 10% FBS and incubated overnight. On the day of the assay the plates are washed using a standard assay buffer (HBSS with 10 mM Hepes) and incubated for 15 minutes in serum free cell culture medium before the addition of a commercially available membrane potential sensitive fluorescent dye (FLIPR Red membrane potential dye, Molecular Devices Corporation). T84 cells are incubated with the FLIPR Red membrane potential dye for 45 minutes in the presence and absence of test compound before being transferred to a commercially available fluorescence imaging plate reader (FLIPR384, Molecular Devices Corporation). Fluorescence levels are monitored continuously every second for 150 seconds; after an initial 10 second baseline, CFTR channel activity is stimulated through the addition of 10 μM forskolin in the presence of 100 μM of the phosphodiesterase inhibitor iso-butyl-methylxanthine (IBMX). Addition of the forskolin leads to the activation of intracellular adenylyl cylase 1, elevating cAMP levels and results in the phosphorylation and opening of CFTR anion channels. CFTR channel opening causes chloride ion efflux and subsequent depolarization of the cells, which is measured by an increase in fluorescence. CFTR inhibitor compounds prevent cell depolarization and the associated increase in fluorescence.
as §1, with “Human colonic” for “For example, Human colonic”, “T84 cells are acquired from” for “T84 cells can be acquired from”, “(ECACC) and are grown in” for “(ECACC) and grown in”

T1 sequence (P13569 whole entry): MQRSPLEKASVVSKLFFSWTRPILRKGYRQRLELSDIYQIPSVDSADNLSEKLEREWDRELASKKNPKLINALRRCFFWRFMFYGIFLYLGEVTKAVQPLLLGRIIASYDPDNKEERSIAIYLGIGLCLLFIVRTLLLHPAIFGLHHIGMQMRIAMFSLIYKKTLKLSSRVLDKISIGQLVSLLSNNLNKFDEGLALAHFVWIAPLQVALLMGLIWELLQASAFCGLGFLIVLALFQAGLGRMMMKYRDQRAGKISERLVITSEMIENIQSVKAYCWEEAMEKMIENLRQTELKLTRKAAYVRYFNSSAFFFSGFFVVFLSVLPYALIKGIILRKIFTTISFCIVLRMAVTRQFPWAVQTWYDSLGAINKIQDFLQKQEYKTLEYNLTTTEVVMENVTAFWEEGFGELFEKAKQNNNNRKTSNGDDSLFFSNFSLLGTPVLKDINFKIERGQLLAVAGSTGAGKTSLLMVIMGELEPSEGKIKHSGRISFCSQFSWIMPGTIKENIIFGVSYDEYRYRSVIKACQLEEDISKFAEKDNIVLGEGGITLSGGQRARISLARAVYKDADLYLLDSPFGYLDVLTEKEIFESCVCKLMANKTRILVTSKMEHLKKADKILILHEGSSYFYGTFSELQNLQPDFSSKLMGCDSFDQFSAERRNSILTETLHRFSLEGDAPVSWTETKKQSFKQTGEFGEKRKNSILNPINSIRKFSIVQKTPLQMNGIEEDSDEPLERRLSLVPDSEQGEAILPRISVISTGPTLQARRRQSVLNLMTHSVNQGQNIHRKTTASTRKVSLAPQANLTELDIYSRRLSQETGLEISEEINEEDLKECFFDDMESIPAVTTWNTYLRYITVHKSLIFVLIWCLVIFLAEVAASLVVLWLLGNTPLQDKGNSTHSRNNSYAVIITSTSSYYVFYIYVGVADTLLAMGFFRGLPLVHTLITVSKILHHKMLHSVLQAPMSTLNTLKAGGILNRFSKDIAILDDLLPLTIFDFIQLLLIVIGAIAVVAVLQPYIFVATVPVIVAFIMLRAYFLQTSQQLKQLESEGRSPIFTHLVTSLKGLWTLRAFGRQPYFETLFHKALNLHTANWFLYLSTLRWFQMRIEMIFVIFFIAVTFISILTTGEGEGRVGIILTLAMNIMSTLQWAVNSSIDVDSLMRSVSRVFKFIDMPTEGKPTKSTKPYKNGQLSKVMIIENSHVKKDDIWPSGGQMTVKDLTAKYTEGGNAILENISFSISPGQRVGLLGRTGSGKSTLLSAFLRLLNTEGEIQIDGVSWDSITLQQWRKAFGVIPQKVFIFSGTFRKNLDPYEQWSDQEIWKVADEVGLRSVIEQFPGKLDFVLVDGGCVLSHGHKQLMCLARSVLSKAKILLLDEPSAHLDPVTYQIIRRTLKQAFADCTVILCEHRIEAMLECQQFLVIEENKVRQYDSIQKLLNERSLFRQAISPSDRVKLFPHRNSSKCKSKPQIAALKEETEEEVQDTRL

Row | Structure (SMILES) | IC50 [µM]
1 | CN(Cc1ccc(COc2ncc(-c3cc(Cl)c(O)c(Cl)c3)nn2)cc1)Cc1ccc(CN2CCCC2)cc1 [Compound 211, 2,6-dichloro-4-(3-(4-((methyl(4-(pyrrolidin-1-ylmethyl)benzyl)amino)methyl)benzyloxy)-1,2,4-triazin-6-yl)phenol, diformate salt] | 8.04
2 | Oc1c(Cl)cc(-c2cnc(OCc3ccc(CN4CCC(O)(c5ccccc5)CC4)cc3)nn2)cc1Cl [Compound 173, 1-(4-((6-(3,5-dichloro-4-hydroxyphenyl)-1,2,4-triazin-3-yloxy)methyl)benzyl)-4-phenylpiperidin-4-ol] | 28.4
3 | Oc1c(Cl)cc(-c2cnc(OCc3ccc(CNCc4ccncc4)cc3)nn2)cc1Cl [Compound 156, 2,6-dichloro-4-(3-(4-((pyridin-4-ylmethylamino)methyl)benzyloxy)-1,2,4-triazin-6-yl)phenol] | 15.4
4 | Oc1c(Cl)cc(-c2cnc(OCc3ccc(CNCc4cccc5ccccc45)cc3)nn2)cc1Cl [Compound 149, 2,6-Dichloro-4-(3-(4-((naphthalen-1-ylmethylamino)methyl)benzyloxy)-1,2,4-triazin-6-yl)phenol] | 3.9
5 | O=C(c1ccco1)N1CCN(Cc2ccc(COc3ncc(-c4cc(Cl)c(O)c(Cl)c4)nn3)cc2)CC1 [Compound 217, (4-(4-((6-(3,5-dichloro-4-hydroxyphenyl)-1,2,4-triazin-3-yloxy)methyl)benzyl)piperazin-1-yl)(furan-2-yl)methanone] | 4.47
6 | Oc1c(Cl)cc(-c2cnc(OCc3ccccc3F)nn2)cc1Cl [Compound 127, 2,6-dichloro-4-(3-(2-fluorobenzyloxy)-1,2,4-triazin-6-yl)phenol] | 5.46
7 | Oc1c(Cl)cc(-c2cnc(NCc3ccc(Cl)c(Cl)c3)nn2)cc1Cl [Compound 133, 2,6-dichloro-4-(3-(3,4-dichlorobenzylamino)-1,2,4-triazin-6-yl)phenol, formate salt] | 23.7
8 | Oc1c(Br)cc(-c2cnc(OCCc3cccc4ccccc34)nn2)cc1Br [Compound 1, 2,6-dibromo-4-(3-(2-(naphthalen-1-yl)ethoxy)-1,2,4-triazin-6-yl)phenol] | 0.26
9 | Oc1c(Cl)cc(-c2cnc(OCc3ccc(CN4CCc5ccc(Br)cc5C4)cc3)nn2)cc1Cl [Compound 180] | 3.54
10 | CN(Cc1ccc(COc2ncc(-c3cc(Cl)c(O)c(Cl)c3)nn2)cc1)Cc1ccc(OCCN2CCOCC2)cc1 [Compound 214, 2,6-dichloro-4-(3-(4-((methyl(4-(2-morpholinoethoxy)benzyl)amino)methyl)benzyloxy)-1,2,4-triazin-6-yl)phenol] | 5.19
11 | CN1CCCN(Cc2ccc(CN(C)Cc3ccc(COc4ncc(-c5cc(Cl)c(O)c(Cl)c5)nn4)cc3)cc2)CC1 [Compound 201, 2,6-dichloro-4-(3-(4-((methyl(4-((4-methyl-1,4-diazepan-1-yl)methyl)benzyl)amino)methyl)benzyloxy)-1,2,4-triazin-6-yl)phenol] | 9.99
12 | CCC(=O)N1CCN(Cc2ccc(COc3ncc(-c4cc(Cl)c(O)c(Cl)c4)nn3)cc2)CC1 [Compound 221, 1-(4-(4-((6-(3,5-dichloro-4-hydroxyphenyl)-1,2,4-triazin-3-yloxy)methyl)benzyl)piperazin-1-yl)propan-1-one] | 17.4
13 | CN(Cc1ccc(COc2ncc(-c3cc(Cl)c(O)c(Cl)c3)nn2)cc1)Cc1ccc2ncccc2c1 [Compound 189, 2,6-dichloro-4-(3-(4-((methyl(quinolin-6-ylmethyl)amino)methyl)benzyl-oxy)-1,2,4-triazin-6-yl)phenol] | 4.72
14 | CN(Cc1ccc(COc2ncc(-c3cc(Cl)c(O)c(Cl)c3)nn2)cc1)Cc1cccc(CN2CCCC2)c1 [Compound 212, 2,6-dichloro-4-(3-(4-((methyl(3-(pyrrolidin-1-ylmethyl)benzyl)amino)methyl)benzyloxy)-1,2,4-triazin-6-yl)phenol, formate salt] | 4.9
15 | CN(C)CCOc1ccc(CN(C)Cc2ccc(COc3ncc(-c4cc(Cl)c(O)c(Cl)c4)nn3)cc2)cc1 [Compound 198, 2,6-dichloro-4-(3-(4-(((4-(2-(dimethylamino)ethoxy)benzyl)(methyl)amino)methyl)benzyloxy)-1,2,4-triazin-6-yl)phenol] | 9.94
16 | OCCN(Cc1cccnc1)c1ncc(-c2cc(Cl)c(O)c(Cl)c2)nn1 [Compound 160, 2,6-dichloro-4-(3-((2-hydroxyethyl)(pyridin-3-ylmethyl)amino)-1,2,4-triazin-6-yl)phenol] | 22.4

Row | Structure (SMILES) | IC50 [µM]
17 | Oc1c(Cl)cc(-c2cnc(OCc3ccc(CN4CCN(c5ccccc5)CC4)cc3)nn2)cc1Cl [Compound 143, 2,6-dichloro-4-(3-(4-((4-phenylpiperazin-1-yl)methyl)benzyloxy)-1,2,4-triazin-6-yl)phenol] | 3.75
18 | O=C(COc1ccccc1)N1CCN(Cc2ccc(COc3ncc(-c4cc(Cl)c(O)c(Cl)c4)nn3)cc2)CC1 [Compound 155, 1-(4-(4-((6-(3,5-dichloro-4-hydroxyphenyl)-1,2,4-triazin-3-yloxy)methyl)benzyl)piperazin1-yl)-2-phenoxyethanone] | 4.95
19 | OCCN(Cc1ccc(COc2ncc(-c3cc(Cl)c(O)c(Cl)c3)nn2)cc1)Cc1ccccc1Cl [Compound 172, 2,6-dichloro-4-(3-(4-(((2-chlorobenzyl)(2-hydroxyethyl)amino)methyl)benzyl-ozyloxy)-1,2,4-triazin-6-yl)phenol] | 3.36
20 | Oc1c(Br)cc(-c2cnc(OCc3ccc(Cl)cc3Cl)nn2)cc1Br [Compound 15, 2,6-dibromo-4-(3-(2,4-dichlorobenzyloxy)-1,2,4-triazin-6-yl)phenol] | 0.94
21 | Oc1c(Cl)cc(-c2cnc(OCCNCc3ccccc3)nn2)cc1Cl [Compound 124, 4-(3-(2-(benzylamino)ethoxy)-1,2,4-triazin-6-yl)-2,6-dichlorophenol] | 1.98
22 | Oc1c(Br)cc(-c2cnc(OCc3ccc(Br)cc3)nn2)cc1Br [Compound 24, 2,6-Dibromo-4-(3-(4-bromobenzyloxy)-1,2,4-triazin-6-yl)phenol] | 3.02
23 | O=C(C1CC1)N1CCN(Cc2ccc(COc3ncc(-c4cc(Cl)c(O)c(Cl)c4)nn3)cc2)CC1 [Compound 219, cyclopropyl(4-(4-((6-(3,5-dichloro-4-hydroxyphenyl)-1,2,4-triazin-3-yloxy)methyl)benzyl)piperazin1-yl)methanone] | 12.4
24 | Oc1c(Cl)cc(-c2cnc(OCc3ccc(F)cc3)nn2)cc1Cl [Compound 146, 2,6-dichloro-4-(3-(4-fluorobenzyloxy)-1,2,4-triazin-6-yl)phenol] | 5.21
25 | Oc1c(Br)cc(-c2cnc(COc3ccc(Cl)cc3Cl)nn2)cc1Br [Compound 42, 2,6-dibromo-4-(3-((2,4-dichlorophenoxy)methyl)-1,2,4-triazin-6-yl)phenol] | 11
26 | Cc1cc(OCc2ncc(-c3cc(Br)c(O)c(Br)c3)nn2)cc(C)c1Br [Compound 54, 2,6-dibromo-4-(3-((4-bromo-3,5-dimethylphenoxy)methyl)-1,2,4-triazin-6-yl)phenol] | 22
27 | CC(Oc1ncc(-c2cc(Br)c(O)c(Br)c2)nn1)c1ccc(Cl)cc1 (stereo not shown) [Compound 11, 2,6-dibromo-4-(3-(1-(4-chlorophenyl)ethoxy)-1,2,4-triazin-6-yl)phenol] | 0.84
28 | CN(Cc1ccc(COc2ncc(-c3cc(Cl)c(O)c(Cl)c3)nn2)cc1)Cc1ccc(-c2ncccn2)cc1 [Compound 202, 2,6-dichloro-4-(3-(4-((methyl(4-(pyrimidin-2-yl)benzyl)amino)methyl)benzyl-oxy)-1,2,4-triazin-6-yl)phenol] | 1.87
29 | Oc1c(Br)cc(-c2cnc(OCc3cnc(Br)s3)nn2)cc1Br [Compound 118, 2,6-dibromo-4-(3-((2-bromothiazol-5-yl)methoxy)-1,2,4-triazin-6-yl)phenol] | 3.23
30 | Oc1c(Br)cc(-c2cnc(COc3ccc4c(c3)CCC4)nn2)cc1Br [Compound 48, 2,6-dibromo-4-(3-((2,3-dihydro-1H-inden-5-yloxy)methyl)-1,2,4-triazin-6-yl)phenol] | 14.8
31 | Oc1c(Br)cc(-c2cnc(OCc3ccccc3Br)nn2)cc1Br [Compound 6, 2,6-dibromo-4-(3-(2-bromobenzyloxy)-1,2,4-triazin-6-yl)phenol] | 0.7
